In patent publication US8486464B2, “Herbal composition for angina pectoris, method to prepare same and uses thereof” (Tasly Pharmaceutical Group Co. Ltd., priority 2000, dated 2013):

How the values were obtained:
Type in all cases: in vivo
myocardial infarction = experiment: Dog myocardial infarction area (N-BT); conditions: dogs; Dan Shen Pill 2 g/kg, Ditiazem 5 mg/kg
Method: (§1) 1.1 Experimental Groups. (1) Blank control group, normal saline 3 ml/kg; (2) DSP group, 2 g natural drug/kg; (3) positive control group, Ditiazem, 5 mg/kg. All the above samples are diluted with normal saline to the same volume of 3 ml/kg and were given to the patient through the duodenum.
The hearts were removed 180 mins after treatment and weighed, cut into slices, and colored with N-BT. The infarction area of each slice (N-BT-uncolorized area) and non-infarction area (N-BT colorized area) were measured. The percentage occupied by the infarction area in the ventricles was calculated and the whole heart was weighted.
(§2) The significance of the experimental results was tested by the t-testing method.

[1] = system: venous blood oxygen content; experiment: Dog coronary venous blood oxygen content; conditions: dogs, Dan Shen Pill 2 g/kg, Ditiazem 5 mg/kg
Method: as §1
(§3) 1.2 Experimental Method. The dogs are anesthetized with pentobarbital sodium. Chests were opened and coronary arterioles and the central part of the dorsal lower branch separated and tied to create an acute myocardial ischemia model. ECGs were recorded and the level of myocardial ischemia (increased section ST, ST) and area of myocardial ischemia (the total increased decimal places in section ST) were calculated. The oxygen content in the coronary artery was recorded. Blood serum creatine kinase (CK), lactate dehydrogenase (LDH), ET, TXB2 and 6-Keto-PGF1 were measured. The oxygen content of the aorta and coronary vein, and blood flow volume in the coronary arteries were measured to calculate myocardial oxygen consumption. Blood oxygen content in the coronary vein was measured to calculate myocardial oxygen content (myocardial oxygen content=(blood oxygen content in arteries-blood oxygen content in coronary veins)×blood flow volume in coronary artery/100).

SOD, MDA = experiment: Rat M-IR damage: SOD activity and MDA content in blood serum; conditions: Wistar, 2 hrs after duodenal dosing, DSP 3.0 g/kg, Ditiazem 30 mg/kg
Method: (1) Experimental Groups. Control group (Serum taken as normal control), Model group (Normal Saline), Ditiazem group (30 mg/kg), DSP 6.0, 3.0 g/kg group. Each group was diluted to its necessary concentration with 3 ml/kg normal saline through the duodenum.
(2) Experimental Method. Wistar animal is anesthetized by pentobarbital sodium and fixed. Chests and cardial membranes are opened to expose the heart. A hole in the left lower dorsal part of the coronary artery is left for tying. Separate the duodenum, and infuse the tested drugs into it. Take blood from the abdomen after 2 hrs and test the MDA and SOD content in the blood serum.

myocardial ischemia = experiment: Dog acute myocardial ischemia: level and area by ECG (Σ-ST, N-ST); conditions: dogs, Dan Shen Pill 2 g/kg, Ditiazem 5 mg/kg
Method: as §1, §3, §2

ET, TXB2, 6-Keto-PGF1α = experiment: Dog plasma ET, TXB2, 6-Keto-PGF1α; set-up: 6-Keto-PGF1α: unit not given beside the values; conditions: dogs, Dan Shen Pill 2 g/kg, Diltiazem 5 mg/kg
Method: as §1, §3

COc1ccc([C@@H]2Sc3ccccc3N(CCN(C)C)C(=O)[C@@H]2OC(C)=O)cc1 [Ditiazem]
Area of Cardiac Chamber (myocardial infarction): 5377.8 ± 411.2 mm2
Area of Infarction (myocardial infarction): 378.98 ± 138.41 mm2
Infarction Location/Cardiac Chamber (myocardial infarction): 7.22 ± 2.87
Infarction Location/Heart (myocardial infarction): 2.52 ± 1.35
Myocardial area (myocardial infarction): 14096.5 ± 3056.4 mm2
VO2, changing percentage (before dosage = 100%) ([1]; 30 min after dosage): 97.70 ± 10.36%
venous oxygen volume (VO2) ([1]; 30 min after dosage): 16.08 ± 1.13 ml %
VO2, changing percentage (before dosage = 100%) ([1]; 60 min after dosage): 95.95 ± 8.27%
venous oxygen volume (VO2) ([1]; 60 min after dosage): 15.84 ± 1.43 ml %
VO2, changing percentage (before dosage = 100%) ([1]; 90 min after dosage): 96.37 ± 5.54%
venous oxygen volume (VO2) ([1]; 90 min after dosage): 15.92 ± 1.29 ml %
VO2, changing percentage (before dosage = 100%) ([1]; 120 min after dosage): 92.15 ± 9.42%
venous oxygen volume (VO2) ([1]; 120 min after dosage): 15.20 ± 1.50 ml %
VO2, changing percentage (before dosage = 100%) ([1]; 180 min after dosage): 89.62 ± 11.94%
venous oxygen volume (VO2) ([1]; 180 min after dosage): 14.82 ± 2.28 ml %
venous oxygen volume (VO2) ([1]; after hypoxia (value before dosage)): 16.56 ± 1.61 ml %
VO2, changing percentage ([1]; after hypoxia, before dosage): 111.45 ± 33.86%
venous oxygen volume (VO2) ([1]; before hypoxia (normal value)): 15.44 ± 2.42 ml %
MDA, blood serum (SOD, MDA): 5.29 ± 1.07 (μ mol/L) × 10^−3
SOD, blood serum (SOD, MDA): 817.6 ± 115.6 U/ml
N-ST (myocardial ischemia; 15 min after dosage): 29.80
N-ST, changing in percentage (before dosage = 100%) (myocardial ischemia; 15 min after dosage): 99.33%
Σ-ST (myocardial ischemia; 15 min after dosage): 277.80
Σ-ST, changing in percentage (before dosage = 100%) (myocardial ischemia; 15 min after dosage): 91.83%
N-ST (myocardial ischemia; 30 min after dosage): 29.60
N-ST, changing in percentage (before dosage = 100%) (myocardial ischemia; 30 min after dosage): 98.67%
Σ-ST (myocardial ischemia; 30 min after dosage): 226.20
Σ-ST, changing in percentage (before dosage = 100%) (myocardial ischemia; 30 min after dosage): 74.87%
N-ST (myocardial ischemia; 45 min after dosage): 29.20
N-ST, changing in percentage (before dosage = 100%) (myocardial ischemia; 45 min after dosage): 97.33%
Σ-ST (myocardial ischemia; 45 min after dosage): 213.40
Σ-ST, changing in percentage (before dosage = 100%) (myocardial ischemia; 45 min after dosage): 70.59%
N-ST (myocardial ischemia; 60 min after dosage): 28.40
N-ST, changing in percentage (before dosage = 100%) (myocardial ischemia; 60 min after dosage): 94.67%
Σ-ST (myocardial ischemia; 60 min after dosage): 186.20
Σ-ST, changing in percentage (before dosage = 100%) (myocardial ischemia; 60 min after dosage): 61.61%
N-ST (myocardial ischemia; 90 min after dosage): 27.00
N-ST, changing in percentage (before dosage = 100%) (myocardial ischemia; 90 min after dosage): 90.00%
Σ-ST (myocardial ischemia; 90 min after dosage): 175.20
Σ-ST, changing in percentage (before dosage = 100%) (myocardial ischemia; 90 min after dosage): 57.95%
N-ST (myocardial ischemia; 120 min after dosage): 26.80
N-ST, changing in percentage (before dosage = 100%) (myocardial ischemia; 120 min after dosage): 89.33%
Σ-ST (myocardial ischemia; 120 min after dosage): 468.00
Σ-ST, changing in percentage (before dosage = 100%) (myocardial ischemia; 120 min after dosage): 55.60%
N-ST (myocardial ischemia; 180 min after dosage): 25.20
N-ST, changing in percentage (before dosage = 100%) (myocardial ischemia; 180 min after dosage): 84.00%
Σ-ST (myocardial ischemia; 180 min after dosage): 122.80
Σ-ST, changing in percentage (before dosage = 100%) (myocardial ischemia; 180 min after dosage): 40.63%
N-ST (myocardial ischemia; before dosage): 30.00
Σ-ST (myocardial ischemia; before dosage): 302.80
6-Keto-PGF1α (ET, TXB2, 6-Keto-PGF1α; 30 min after dosage): 1749.4 ± 278.3
6-Keto-PGF1α, changing in percentage (before dosage = 100%) (ET, TXB2, 6-Keto-PGF1α; 30 min after dosage): 118.95 ± 14.47 %
ET, changing in percentage (before dosage = 100%) (ET, TXB2, 6-Keto-PGF1α; 30 min after dosage): 85.14 ± 13.98 %
TXB2, changing in percentage (before dosage = 100%) (ET, TXB2, 6-Keto-PGF1α; 30 min after dosage): 101.14 ± 17.90 %
blood plasma ET (ET, TXB2, 6-Keto-PGF1α; 30 min after dosage): 47.51 ± 7.39 pg/mL
blood plasma TXB2 (ET, TXB2, 6-Keto-PGF1α; 30 min after dosage): 143.40 ± 28.64 pg/mL
6-Keto-PGF1α (ET, TXB2, 6-Keto-PGF1α; 60 min after dosage): 1902.6 ± 155.1
6-Keto-PGF1α, changing in percentage (before dosage = 100%) (ET, TXB2, 6-Keto-PGF1α; 60 min after dosage): 131.19 ± 16.98 %
ET, changing in percentage (before dosage = 100%) (ET, TXB2, 6-Keto-PGF1α; 60 min after dosage): 84.06 ± 18.24 %
TXB2, changing in percentage (before dosage = 100%) (ET, TXB2, 6-Keto-PGF1α; 60 min after dosage): 92.58 ± 15.17 %
blood plasma ET (ET, TXB2, 6-Keto-PGF1α; 60 min after dosage): 46.38 ± 9.02 pg/mL
blood plasma TXB2 (ET, TXB2, 6-Keto-PGF1α; 60 min after dosage): 134.40 ± 46.48 pg/mL
6-Keto-PGF1α (ET, TXB2, 6-Keto-PGF1α; 90 min after dosage): 1912.4 ± 258.5
6-Keto-PGF1α, changing in percentage (before dosage = 100%) (ET, TXB2, 6-Keto-PGF1α; 90 min after dosage): 132.75 ± 28.52 %
ET, changing in percentage (before dosage = 100%) (ET, TXB2, 6-Keto-PGF1α; 90 min after dosage): 71.69 ± 12.10 %
TXB2, changing in percentage (before dosage = 100%) (ET, TXB2, 6-Keto-PGF1α; 90 min after dosage): 69.72 ± 8.76 %
blood plasma ET (ET, TXB2, 6-Keto-PGF1α; 90 min after dosage): 39.97 ± 7.95 pg/mL
blood plasma TXB2 (ET, TXB2, 6-Keto-PGF1α; 90 min after dosage): 1093.4 ± 320.9 pg/mL
6-Keto-PGF1α (ET, TXB2, 6-Keto-PGF1α; 120 min after dosage): 1982.8 ± 574.2
6-Keto-PGF1α, changing in percentage (before dosage = 100%) (ET, TXB2, 6-Keto-PGF1α; 120 min after dosage): 139.39 ± 56.36 %
ET, changing in percentage (before dosage = 100%) (ET, TXB2, 6-Keto-PGF1α; 120 min after dosage): 74.30 ± 17.04 %
TXB2, changing in percentage (before dosage = 100%) (ET, TXB2, 6-Keto-PGF1α; 120 min after dosage): 63.03 ± 14.20 %
blood plasma ET (ET, TXB2, 6-Keto-PGF1α; 120 min after dosage): 41.42 ± 15.69 pg/mL
blood plasma TXB2 (ET, TXB2, 6-Keto-PGF1α; 120 min after dosage): 1284.1 ± 695.0 pg/mL
6-Keto-PGF1α (ET, TXB2, 6-Keto-PGF1α; 180 min after dosage): 1705.2 ± 412.2
6-Keto-PGF1α, changing in percentage (before dosage = 100%) (ET, TXB2, 6-Keto-PGF1α; 180 min after dosage): 119.08 ± 39.78%
ET, changing in percentage (before dosage = 100%) (ET, TXB2, 6-Keto-PGF1α; 180 min after dosage): 82.16 ± 14.09 %
TXB2, changing in percentage (before dosage = 100%) (ET, TXB2, 6-Keto-PGF1α; 180 min after dosage): 62.77 ± 14.51 %
blood plasma ET (ET, TXB2, 6-Keto-PGF1α; 180 min after dosage): 45.74 ± 9.40 pg/mL
blood plasma TXB2 (ET, TXB2, 6-Keto-PGF1α; 180 min after dosage): 1032.7 ± 343.1 pg/mL
6-Keto-PGF1α (ET, TXB2, 6-Keto-PGF1α; after hypoxia before dosage): 1478.8 ± 218.6
6-Keto-PGF1α, changing in percentage (ET, TXB2, 6-Keto-PGF1α; after hypoxia before dosage): 92.3 ± 5.53%
ET, changing in percentage (ET, TXB2, 6-Keto-PGF1α; after hypoxia before dosage): 178.30 ± 57.33%
TXB2, changing in percentage (ET, TXB2, 6-Keto-PGF1α; after hypoxia before dosage): 101.14 ± 19.90 %
blood plasma ET (ET, TXB2, 6-Keto-PGF1α; after hypoxia before dosage): 55.51 ± 3.59 pg/mL
blood plasma TXB2 (ET, TXB2, 6-Keto-PGF1α; after hypoxia before dosage): 143.40 ± 28.64 pg/mL
6-Keto-PGF1α (ET, TXB2, 6-Keto-PGF1α; before hypoxia (normal value)): 1597.4 ± 185.3
blood plasma ET (ET, TXB2, 6-Keto-PGF1α; before hypoxia (normal)): 34.41 ± 9.41 pg/mL
blood plasma TXB2 (ET, TXB2, 6-Keto-PGF1α; before hypoxia (normal)): 106.40 ± 19.12 pg/mL
